# Read-outs that look alike come from different tables or passages of the source.
# Experiments:
# [1] = NINCDS Subcutaneous Pentylenetetrazol (Metrazol) Seizure Threshold Test (scMet); type: in vivo, mice; settings: for minimal effective dose: sc, read-out: scMet: dosage level that elicited protection
# [2] = Neuropharmacological Profile (NPP): general CNS observational screen (depression, righting reflex, ataxia)
# [3] = at 100 mg/kg, i.p., mice, score 0-8
compound,measurement,setting,value
"O=C(Cc1nc2ccccc2c(=O)n1-c1ccccc1Cl)c1ccncc1 [IVd, 2-[2-Oxo-2-(4-pyridyl)ethyl]-3-o-chlorophenyl-4(3H)-quinazolinone]",ED50,"[1]; Mus musculus, ip, secondary evaluation, at time of peak effect",30.8 mg/kg
same,minimal effective dose,"[1]; Mus musculus, after 0.5 hr",30 mg/kg
same,minimal effective dose,"[1]; Mus musculus, after 4 hr (value in parentheses)",100 mg/kg
same,PI scMet (Protective Index = TD50/ED50),[1]; secondary evaluation,4.44
same,potency against scMet seizures compared with methaqualone,[1]; secondary evaluation,more potent
same,scMet protective index compared with Ethosuximide,[1]; secondary evaluation,higher scMet protective index than Ethosuximide
same,scMet protective index compared with methaqualone,[1]; secondary evaluation,approximately four-fold higher
same,scMet ED50 compared with commercial petit mal agents,"[1]; vs Ethotoin, Trimethadione, Paramethadione, Ethosuximide, Methsuximide, Phensuximide, Phenacamide (data of DHEW Publication No. (NIH) 76-1093)",lower ED50 in the scMet screen than the commercially available petit mal agents
same,behavioral activity compared with methaqualone,[2]; NPP summary,approaches that of methaqualone
same,Depression,"[2]; at 10 mg/kg, i.p., mice, score 0-8",2
same,CNS Depression,"[2]; at 30 mg/kg (value in parentheses), i.p., mice, score 0-8",2
same,Ataxia,[2]; [3],6
same,CNS Depression,[2]; [3],6
same,Righting reflex,[2]; [3],8

# — patent publication US4183931A, “2-Ketoalkyl-4(3H)-quinazolinones” (Research Corporation, priority 1977, dated 1980)
